How the values were obtained:
[1] = test system: U-insertion gRNA/pre-mRNA hybrid RNA (pre-cleaved) (RNA, duplex, 3'-end amino modification in two of the oligoribonucleotides used (which ones stated only in S1 Table)) GGAAGUAUGAGACGUAGG/AUUGGAGUUAUAG/CUAUAACUCCGAUAAACCUACGUCUCAUACUUCC; assay: UV melting, 260 nm; conditions: Na+ (5 mM Na cacodylate; NaCl not stated); pH 6.8; 1 μM RNA; neomycin 1.3 μM or 13 μM; two helices; 11–13 over both RNAs
[2] = test system: U-deletion gRNA/pre-mRNA hybrid RNA (pre-cleaved) (RNA, duplex, 3'-end amino modification in two of the oligoribonucleotides used (which ones stated only in S1 Table)) GGAAAGGGAAAGUUGUGAUUUU/GCGAGUUAUAGAAUA/GGUUCUAUAACUCGCUCACAACUUUCCCUUUCC; assay: UV melting, 260 nm; conditions: Na+ (5 mM Na cacodylate; NaCl not stated); pH 6.8; 1 μM RNA; neomycin 1.3 μM or 13 μM; two helices; 11–13 over both RNAs
[3] = test system: U-insertion gRNA/pre-mRNA hybrid RNA (pre-cleaved) (RNA, duplex, 3'-end amino modification in two of the oligoribonucleotides used (which ones stated only in S1 Table)) GGAAGUAUGAGACGUAGG/AUUGGAGUUAUAG/CUAUAACUCCGAUAAACCUACGUCUCAUACUUCC; assay: isothermal titration calorimetry; conditions: 30 mM KCl, 10 mM Mg(OAc)2; 20 mM HEPES/KOH pH 7.5, 0.5 mM DTT, 27°C; 2 μM RNA; macroscopic, 3 sites
[4] = test system: U-deletion gRNA/pre-mRNA hybrid RNA (pre-cleaved) (RNA, duplex, 3'-end amino modification in two of the oligoribonucleotides used (which ones stated only in S1 Table)) GGAAAGGGAAAGUUGUGAUUUU/GCGAGUUAUAGAAUA/GGUUCUAUAACUCGCUCACAACUUUCCCUUUCC; assay: isothermal titration calorimetry; conditions: 30 mM KCl, 10 mM Mg(OAc)2; 20 mM HEPES/KOH pH 7.5, 0.5 mM DTT, 27°C; 2 μM RNA; macroscopic, 3 sites
[5] = test system: U-insertion gRNA/pre-mRNA hybrid RNA (pre-cleaved) (RNA, duplex, 3'-end amino modification in two of the oligoribonucleotides used (which ones stated only in S1 Table)) GGAAGUAUGAGACGUAGG/AUUGGAGUUAUAG/CUAUAACUCCGAUAAACCUACGUCUCAUACUUCC; assay: circular dichroism titration, 273 nm; conditions: Na+ (65 mM NaCl, 10 mM Na cacodylate); pH 6.8, 27°C; 12 μM RNA; neomycin up to 0.6 mM; A-form retained
[6] = test system: U-deletion gRNA/pre-mRNA hybrid RNA (pre-cleaved) (RNA, duplex, 3'-end amino modification in two of the oligoribonucleotides used (which ones stated only in S1 Table)) GGAAAGGGAAAGUUGUGAUUUU/GCGAGUUAUAGAAUA/GGUUCUAUAACUCGCUCACAACUUUCCCUUUCC; assay: circular dichroism titration, 273 nm; conditions: Na+ (65 mM NaCl, 10 mM Na cacodylate); pH 6.8, 27°C; 12 μM RNA; neomycin up to 0.6 mM; A-form retained

NC[C@@H]1O[C@H](O[C@H]2[C@@H](O)[C@H](O[C@@H]3[C@@H](O)[C@H](N)C[C@H](N)[C@H]3O[C@H]3O[C@H](CN)[C@@H](O)[C@H](O)[C@H]3N)O[C@@H]2CO)[C@H](N)[C@@H](O)[C@@H]1O
binding [1]: yes | binding [2]: yes | Kd [3]: 1100 nM | Kd [4]: 1000 nM | binding [5]: yes | binding [6]: yes

— paper PMC4350841 (2015)
